“Also recorded” adds a separate entry of the source.
Experiments:
[1] = system: malignant lymphocytes from two patients with chronic lymphocytic leukemia [CLL]; test: Effect of the p53 inhibitory compounds on B-CLL viability (PI exclusion by FACS, MTT), 3 days culture; assay type: cell-based; details: FIG. 1
Description: The malignant lymphocytes from two patients with chronic lymphocytic leukemia [CLL] were isolated by ficoll-hypaque sedimentation and suspended at a density of 1 million cells per milliliter in RPMI 1640 medium supplemented with 10% fetal bovine serum. Two hundred microliter aliquots of cells were dispersed in the wells of culture plates containing the indicated final concentrations of either PFT-α (“PFT-open”) or IBT (PFT-closed). After 3 days culture, viable cells were enumerated by fluorescence-activated cell sorting [FACS] after staining with propidium iodide [PI]. Viable cells excluded the dye [open circles]. In addition, cell metabolism was assessed by the ability of the cells to […] the tetrazolium dye MTT [closed squares].

[2] = system: Chronic lymphocytic leukemia [CLL] cells; test: Protection against spontaneous apoptosis and fludarabine-induced apoptosis (PI negative / DiOC6 high cells by FACS); assay type: cell-based; details: one micromolar, 3 days culture, FIG. 2
Protocol: Chronic lymphocytic leukemia [CLL] cells were cultured for 3 days as described in Example 2. Some of the cultures were supplemented with one micromolar of PFT-open or PFT-closed, as indicated. In the experiment shown in the bottom panel of FIG. 2, some of the cultures also contained the cytotoxic adenine nucleoside analog fludarabine [abbreviated F-AraA]. Fludarabine is the first line treatment for CLL, and the toxicity of the drug is dependent upon the p53 pathway. To assess healthy, viable cells, staining was done with both PI, as indicated in Example 2, and with the mitochondrial dye DiOC6. Cells that were both PI negative and DIOC6 high were enumerated by FACS.

[3] = system: BEAS-2B human airway epithelial cells; test: Viability of treated cells at end of incubation in the 12/15-lipoxygenase promoter/luciferase STAT-6 reporter assay; assay type: cell-based; details: 10 μM for 1 hour, then IL-4 10 ng/ml, 16 hours
Protocol: The BEAS-2B human airway epithelial cells were transiently transfected with the human 12/15-lipoxygenase promoter/luciferase reporter gene. Cells were then incubated with the IBT analogs (FIG. 5) at 10 μM for 1 hour, followed by IL-4 (10 ng/ml). After 16 hours, luciferase was measured using a chemiluminometer. The STAT-6 induction was normalized using the B-gal results as “background.” The viability of the treated cells was visually verified at the end of the incubation, and found to be >95%. Results shown in FIG. 3 are the mean of duplicate measurements.
Human airway epithelial cells, BEAS-2B, were transiently transfected with the human 12/15-lipoxygenase promoter/luciferase reporter plasmid with and without a STAT6 expressing plasmid. The cells were incubated with 10 μM of STAT-6 (Control Sample 1); 10 μM STAT-6 (Sample 2); a mixture of STAT-6 and compound 8 (Sample 3); and compound 8 alone (Sample 4); for 1 hour. This was followed treatment with 10 ng/mL of IL-4 (except control). After 16 hours, luciferase was measured using a chemiluminometer. The STAT-6 induction was normalized using the β-gal results as “background”. The viability of the treated cells was visually verified at the end of the incubation, and found to be>95%. The results are illustrated in FIG. 7.

[4] = system: Human Hodgkin's lymphoma cells L1236; test: Effect of IBT and interferon on Hodgkin's lymphoma cells (CellTiter 96 MTS viability); assay type: cell-based; details: 3, 5 or 7 days; IBT at doses up to 10 μM; FIG. 12
Protocol: Human Hodgkin's lymphoma cells L1236 were incubated for 3, 5 or 7 days in complete RPMI1640 and 10% FBS. The cells were plated at 3×10^5 cells/mL.
The effect was more pronounced after 7 days of incubation.
The results are illustrated in FIG. 12. The y-axis represent the normalized viability when compared to control cells incubated with 0.1% DMSO with no interferon or IBT added, adjusted at 100%. The cell viability was determined using CellTiter 96 Aqueous One Solution Cell Proliferation Assay (Promega). (CellTiter 96 uses a novel tetrazolium compound (MTS) and an electron coupling reagent, phenazine ethosulfate.)

[5] = Cyclization of PFT-α to IBT in DMSO/water dilutions, reversed phase HPLC over time; assay type: physicochemical; details: for % cyclized to IBT: DMSO stock diluted with water, 25° C., reversed phase HPLC
Protocol: The preparation of PFT-α was accomplished as shown in Scheme 1 by reacting 4-methyl-2-bromoacetophenone with 2-amino-4,5,6,7-tetrahydrobenzothiazole. Upon recrystallization of the PFT-α from isopropyl alcohol, it was noticed that PFT-α readily ring-closed completely to the imidazo[2, 1-b]benzothiazole (IBT). Therefore, a subsequent investigation was undertaken to study the propensity of PFT-α to ring-close in protic solvents. […] Thus, PFT-α was dissolved in DMSO and water dilutions were made from this stock.

Compound | CLL survival / toxicity (viable cells by PI exclusion and MTT) [1] | Effect on untreated CLL cells (spontaneous apoptosis) [2] | Protective effect on CLL cells treated with F-AraA (fludarabine) ([2]; with fludarabine, compared with PFT-α) | Viability of the treated cells, visually verified at the end of the incubation [3] [%] | Anti-proliferative / growth-inhibitory effect on L1236 cells (normalized viability) [4] | % cyclized to IBT ([5]; 0 h) [%] | % cyclized to IBT ([5]; 12 h) [%] | % cyclized to IBT ([5]; 24 h) [%] | % cyclized to IBT ([5]; 48 h) [%] | Stability / ring closure in protic solvents and aqueous solution (in words) ([5]; protic solvents, room temperature, aqueous solution)
Cc1ccc(-c2cn3c4c(sc3n2)CCCC4)cc1 [IBT] | non-toxic at concentrations up to 100 micromolar | nearly equivalent effects | less protective effects | > 95 | only a small anti-proliferative effect | – | – | – | – | –
Cc1ccc(C(=O)Cn2c3c(sc2=N)CCCC3)cc1 [PFT-α] | dose-dependently reduced CLL survival | nearly equivalent effects | – | – | – | 5 | 47 | 69 | 92 | unstable in aqueous solution under in vivo conditions; also recorded: begins cyclizing at room temperature immediately upon dissolution in protic solvents

— patent US20030143199A1, “Use of STAT-6 inhibitors as therapeutic agents” (priority 2001, published 2003)
